We go through 12 compounds from ChEMBL document CHEMBL1201862, “PubChem BioAssay data set” (2004).

What all share (test): DTP human tumour cell line panel, 48 h
Test [1] deals with 786-0.
Test [2] concerns CAKI-1.
For test [3], the system named is CCRF-CEM.
Test [4] concerns EKVX.
The test system of test [5] is MCF7.
Test [6] has as its system MDA-MB-435.
The test system of test [7] is MOLT-4.
Test [8] relates to Malme-3M.
In test [9] the test system is OVCAR-4.
Test [10] has as its system SF-268.
The test system of test [11] is SF-295.
The test system of test [12] is SK-OV-3.
Test [13] has as its system SN12C.
The subject of test [14] is SNB-19.
For test [15], the system named is SNB-75.
For test [16], the system named is SR.
Test [17] deals with UACC-257.
Test [18] relates to UO-31.
For test [19], the system named is NCI-H226.

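Step 1: Grow cells in 96-well plates. Step 2: Expose to compound for 48 hours at 5 concentrations. Step 3: Interpolate endpoints linearly; if unreached, use highest concentration. GI50 marks 50% less growth.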 Active and inactive are the calls of the source. Cut-off read from the data, not from the text of the source: active = GI50 up to about 1.1 µM and inactive = higher. Some results are limits rather than exact numbers.

As a reminder, the GI50 is the concentration giving 50% growth inhibition. Regarding `COc1cc(Br)cc2cc(-c3cn4ccsc4n3)c(=O)oc12`, the GI50 in [1] was 42.8 µM (inactive); in test [2], 35 µM (inactive); in test [3], 35 µM (inactive); in [4], 29.2 µM (inactive); in test [5], 7.19 µM (inactive); in test [6] it was 21.6 µM (inactive). For the same compound, the GI50 in [7] is 32 µM (inactive); in test [8], 91.2 µM (inactive); in test [9], 51.2 µM (inactive); in test [10], 34.3 µM (inactive); in [11], 26.8 µM (inactive); in [12], 33.7 µM (inactive). Also, the GI50 in test [13] was 28.1 µM (inactive); in test [14] it was 30.4 µM (inactive); in test [15], 32.1 µM (inactive); in [16], 25.9 µM (inactive); in test [17] it was 37.6 µM (inactive); in test [18] it was 23.8 µM (inactive).
As to `COc1c(C)c2c(c(O)c1C/C=C(\C)CCC(=O)O)C(=O)OC2` [MYCOPHENOLIC ACID], the GI50 was 0.667 µM (active) in test [1]; 0.805 µM (active) in test [2]; 0.49 µM (active) in test [3]; > 100 µM (inactive) in test [4]; 0.376 µM (active) in [5]; 0.871 µM (active) in [6]. Moreover, the 50% growth inhibitory concentration (GI50) is 0.326 µM (active) in [7]; > 46.9 µM (inactive) in [19]; > 21.8 µM (inactive) in test [9]; 1.37 µM (inactive) in test [10]; 0.632 µM (active) in test [11]; 1.43 µM (inactive) in test [12]. For the same compound, the GI50 is 4.1 µM (inactive) in test [13]; 0.706 µM (active) in test [14]; 6.81 µM (inactive) in test [15]; 0.446 µM (active) in [16]; 4.51 µM (inactive) in test [17]; 3.1 µM (inactive) in test [18].
Take `O=c1oc2ccccc2c2c1Sc1ccccc1N2`: the GI50 was > 100 µM (inactive) in test [1]; > 100 µM (inactive) in test [2]; 75.9 µM (inactive) in test [3]; 62.2 µM (inactive) in test [4]; 71.3 µM (inactive) in [5]; 96.4 µM (inactive) in test [6]. The GI50 in test [7] was 63.4 µM (inactive); in [19], 82.4 µM (inactive); in test [9], 22.8 µM (inactive); in test [10], 56.6 µM (inactive); in test [11] it was > 100 µM (inactive); in test [13] it was > 100 µM (inactive). Moreover, the GI50 in test [14] is > 100 µM (inactive); in test [16], 53.6 µM (inactive); in test [17], > 100 µM (inactive); in test [18] it was > 100 µM (inactive).
For the compound `CNc1ccc([S+]([O-])Nc2ccccc2)cc1` (stereo not given), the GI50 in [1] is 53.8 µM (inactive); in test [3], > 100 µM (inactive); in test [4], 30.5 µM (inactive); in test [5], 56 µM (inactive); in test [6] it was 34 µM (inactive); in test [7], 52.6 µM (inactive). The GI50 in test [8] was 53.2 µM (inactive); in [19], 21.2 µM (inactive); in test [9], 94.2 µM (inactive); in test [10], 25.9 µM (inactive); in test [11], 41.5 µM (inactive); in [13] it was > 100 µM (inactive). Also, the GI50 in test [14] was > 100 µM (inactive); in test [16], 38.2 µM (inactive); in test [17], 41.1 µM (inactive); in test [18] it was 23.9 µM (inactive).
Consider `CN1C(=O)C(CC(=O)O)NC1=S` (stereo not given), for which the GI50 is > 100 µM (inactive) in [1]; > 100 µM (inactive) in test [2]; > 100 µM (inactive) in [3]; 56.6 µM (inactive) in test [4]; 54 µM (inactive) in test [5]; > 100 µM (inactive) in [6]. Also, the GI50 in test [7], in [8], in [10], in test [11], in [12] and in [13] was > 100 µM (inactive) each time. Besides, the GI50 in test [14], in test [15], in test [16], in test [17] and in test [18] was > 100 µM (inactive) each time.
On to `CN(C)CCCNc1cc(O)c2c(c1O)C(=O)c1ccccc1C2=O`, for which the GI50 was 7.67 µM (inactive) in test [1]; 13 µM (inactive) in test [2]; 15 µM (inactive) in test [4]; 11.6 µM (inactive) in [5]; 15.5 µM (inactive) in test [6]; 31.3 µM (inactive) in test [8]. Besides, the GI50 is 18.2 µM (inactive) in test [19]; 12.1 µM (inactive) in [9]; 16.8 µM (inactive) in test [10]; 13.1 µM (inactive) in test [11]; 12.2 µM (inactive) in test [12]; 3.48 µM (inactive) in [13]. Further, the GI50 in [14] is 6.9 µM (inactive); in test [16] it was 3.01 µM (inactive); in [17], 13.6 µM (inactive); in test [18] it was 1.69 µM (inactive).
Regarding `CCOC(=O)c1[nH]c2cccc3c2c1CC(Br)C3=O` (stereo not given), the GI50 was 4.72 µM (inactive) in test [1]; 11.2 µM (inactive) in test [2]; 3.83 µM (inactive) in test [3]; 17.5 µM (inactive) in [4]; 22.5 µM (inactive) in test [5]; 11.7 µM (inactive) in [6]. In addition, the GI50 is 2.71 µM (inactive) in test [7]; 14.5 µM (inactive) in [8]; 17.4 µM (inactive) in [19]; 15.6 µM (inactive) in test [10]; 17.2 µM (inactive) in test [11]; 22.7 µM (inactive) in [12]. Also, the GI50 is 16.7 µM (inactive) in test [13]; 15.7 µM (inactive) in [14]; 2.14 µM (inactive) in test [16]; 14.4 µM (inactive) in test [17]; 6.21 µM (inactive) in test [18].
For the compound `CON(C)C(=O)C(C)NC(=O)OC(C)(C)C` (stereo not given), the GI50 in test [1], in test [3], in [4], in [5], in test [6] and in test [7] was > 100 µM (inactive) throughout. The GI50 in [8], in [19], in [10], in test [11], in [12] and in test [13] was > 100 µM (inactive) each time. In addition, the GI50 in test [14], in test [15], in [16], in [17] and in test [18] was > 100 µM (inactive) in each case.
Take `NCCCCN(CCCN)C(=O)OCc1ccccc1`: the GI50 in [1], in test [2], in test [3], in test [4], in [5] and in test [6] was > 100 µM (inactive) each time. The GI50 in [7], in test [19], in test [9], in [10], in [11] and in test [12] was > 100 µM (inactive) in each case. Further, the GI50 in [13], in test [14], in test [15], in [16], in [17] and in test [18] was > 100 µM (inactive) in each case.
On to `CO/C=C(/C(=O)OC)c1ccccc1[C@H]1C[C@@H]1c1ccccc1`, for which the GI50 in [1] was 31.7 µM (inactive); in test [2], 16 µM (inactive); in test [3] it was 10.6 µM (inactive); in test [4], 15.4 µM (inactive); in test [5], 29 µM (inactive); in test [6], 17.8 µM (inactive). Further, the GI50 is 30.1 µM (inactive) in [7]; 13.1 µM (inactive) in test [8]; 20.5 µM (inactive) in test [19]; 17.8 µM (inactive) in test [9]; 24.4 µM (inactive) in test [10]; 23.1 µM (inactive) in test [11]. Also, the GI50 was 16.7 µM (inactive) in test [12]; 28.6 µM (inactive) in test [13]; 48.3 µM (inactive) in test [14]; 14.2 µM (inactive) in test [16]; 15.8 µM (inactive) in test [17]; 29.4 µM (inactive) in test [18].
Take `COc1ccc(-c2ccc(C(=O)C=P(c3ccccc3)(c3ccccc3)c3ccccc3)cc2)cc1`: the GI50 in [1] is 16.7 µM (inactive); in [2] it was 11.4 µM (inactive); in test [3] it was 5.52 µM (inactive); in test [4], 6.59 µM (inactive); in test [5] it was 10.1 µM (inactive); in [6], 12.2 µM (inactive). The GI50 in test [7] is 4.59 µM (inactive); in test [8], 18.7 µM (inactive); in test [19], 12.9 µM (inactive); in test [9], 7.96 µM (inactive); in [10], 24.3 µM (inactive); in [11], 10.4 µM (inactive). Also, the GI50 in test [12] is 16.9 µM (inactive); in test [13], 14.9 µM (inactive); in test [14], 25.6 µM (inactive); in test [16] it was 16.2 µM (inactive); in [17], 17.7 µM (inactive); in test [18], 3.13 µM (inactive).
Take `Cc1nc2ccccc2n1Cc1nnc(-c2ccccc2)o1`: the GI50 in test [1] is 38.7 µM (inactive); in [3], > 100 µM (inactive); in test [4], > 100 µM (inactive); in [5], 63.1 µM (inactive); in test [6] it was 0.104 µM (active); in test [7] it was 41.8 µM (inactive). The GI50 in [8], in test [10], in test [11], in [12], in [13] and in test [14] was > 100 µM (inactive) each time. In addition, the GI50 in [15] is 46.3 µM (inactive); in test [16] it was 43.6 µM (inactive); in [17], > 100 µM (inactive); in test [18], > 100 µM (inactive).
